Experimental data from patent publication US20190060463A1, “BRIDGED POLYETHYLENE GLYCOL-ALIPHATIC POLYESTER BLOCK COPOLYMER, PREPARATION METHOD FOR SAME, INTERMEDIATE OF SAME, AND USES THEREOF” (University Of Science And Technology Of China, priority 2015, published 2019).

Tested on: MDA-MB-231 in situ breast cancer mouse tumor model
Experiment: Inhibition of breast cancer growth by nanoparticles carrying docetaxel
Type: in vivo, nude mouse
Conditions: 70 μg DTXL (3.5 mg/kg), 3 administrations, period 7 days
Protocol: In this Example, a MDA-MB-231 in situ breast cancer mouse tumor model was used. The specific process of establishing the model was as follows. MDA-MB-231 cells were cultured in a DMEM complete medium. The cells were cultured with a serum-free DMEM 6 hours before the model was established, and digested with trypsin. The cells were collected by centrifugation at 1000 rpm, and resuspended with PBS to allow the density of the cells to be up to 2×10^7cells/mL. 100 μL of the cell suspension was injected to the second right breast of a nude mouse. In this Example, mPEG113-b-PDLLA72, mPEG113-Dlinkm-PDLLA70, and mPEG113-Dlink-PDLLA75 were used to produce drug loaded nanoparticles.
Nude mice, which were injected with breast cancer cells in situ, were bred in a SPF-level animal room for about 7 days, and visible tumors may be formed. The volume of the tumor was calculated according to the equation: V=0.5*a*b*b, wherein a refers to a longer diameter of the tumor and b refers to a shorter diameter of the tumor. When the tumor volume of the nude mouse reaches about 60 mm^3, treatment was performed. 20 g nude mice inoculated with MDA-MB-231 tumor were divided into 5 groups according to the following manners of treatment, and each group has 5 nude mice. […] A treatment period was 7 days and 3 administrations were performed. The tumor volume was measured every 3 days. […]

SMILES: CC(=O)O[C@@]12CO[C@@H]1C[C@H](O)[C@@]1(C)C(=O)[C@H](O)C3=C(C)[C@@H](OC(=O)[C@H](O)[C@@H](NC(=O)OC(C)(C)C)c4ccccc4)C[C@@](O)([C@@H](OC(=O)c4ccccc4)[C@H]21)C3(C)C [DTXL, docetaxel]
- inhibitory effect on tumor growth: no inhibitory effect
